What was measured:
Experiment in all cases: TMT global proteomic analysis of HEK293 cells
Type in all cases: cell-based, Homo sapiens
Conditions in all cases: HEK293, 0.3 μM, 8 h
[1] = test system: MOXD1
Protocol: (§1) To establish the specificity of SGK3-PROTAC1 employing an unbiased approach, we performed quantitative Tandem–Mass–Tag (TMT)-labeled global proteomic analysis of HEK293 cells treated in the presence or absence of 0.3 μM SGK3-PROTAC1 compared to either 0.3 μM cisSGK3-PROTAC1 or DMSO for 8 h. Experiments were undertaken in triplicate, and analysis in Proteome Discoverer v2.2 using the Mascot search engine allowed relative quantification of 8766 proteins.
(§2) Figure 4 TMT proteomic analysis of HEK293 cells treated with SGK3-PROTAC1. (A) Cells were treated with DMSO (control), SGK3-PROTAC1 (0.3 μM), or cisSGK3-PROTAC1 (0.3 μM) for 8 h and lysed. Lysates were subjected to immunoblot analysis with the indicated antibodies. (B) Lysates were examined by quantitative proteomics. […]
(§3) Cell culture and proteomic sample preparation
(§4) Cells pellets were lysed with 2 ml of lysis buffer (8 M Urea, 50 mM Ammonium bicarbonate containing protease inhibitor and phosphatase inhibitor). The sample were left on ice for 15 min and were then sonicated for 5 min in ice-cold water bath under high intensity with 30 sec on and off. After sonication, benzonase® endonuclease (Merck Millipore) with the volume ratio of 1: 100 were added into the lysate to degrade DNA and RNA. The lysate were then centrifuged at 12,000 rpm for 15 min at 4 °C, and supernatants were transferred into new eppendorf tubes. The protein concentration were measured with BCA assay (Pierce™ BCA Protein Assay Kit, Thermo). The lysate from each sample was reduced with 5 mM DTT at 45 °C for 30 min. Lysates were briefly centrifuged and were cool down to room temperature before alkylation in the dark with 10 mM iodoacetamide at room temperature. The alkylation was then quenched by the addition of 5 mM DTT. Samples were first digested by Lys-C with the weight ratio of 1:200 (w/w) for 4 h at 30 °c. Then, sample were diluted with 50 mM ammonium bicarbonate to 1.5 M Urea concentration. Samples were then digested with trypsin (Pierce trypsin, Thermo) at an enzyme to protein ratio of 1:50 (w/w) at room temperature with gentle shaking for overnight.
(§5) The digest was stopped by the addition of 1% TFA (v/v), centrifuged at 10,000 g for 10 min at room temperature.
(§6) The supernatant were desalted on 200 mg SepPak tC18 cartridge (Waters). Desalted peptides were dried by vacuum centrifugation using Speedvac (Thermo).
(§7) TMT labelling and Basic C18 reverse phase (bRP) chromatography fractionation Each sample (200 μg of peptides each) was re-suspended in 100 μL of 100 mM TEAB buffer. The TMT labelling reagents were equilibrated to room temperature and 41 μL anhydrous acetonitrile was added to each reagent channel and softly vortexed for 10 min. Peptides were transferred to the corresponding TMT channels and incubated for 1 h at room temperature. The reaction was quenched with 8 μL of 5% hydroxylamine. To ensure complete labelling, 1 µg of labelled samples from each channel were analyzed by LC-MS/MS prior to mix. After evaluation, the complete TMT labelled 9 samples were then combined, acidified and dried. Sep-Pak desalting was then performed and the elution was dried to completeness.
(§8) Ultimate 3000 high-pressure liquid chromatography (HPLC) system (Dionex) were used for basic C18 reverse phase chromatography fractionation operating at 569 µL/min with two buffers: buffer A (10 mM ammonium formate, pH 10) and buffer B (80% ACN, 10 mM ammonium formate, pH 10). The desalted mixture of TMT-labelled peptides were resuspended in 200 µL of buffer A (10 mM ammonium formate, pH10) and separated on a C18 reverse phase column (4.6 × 250 mm, 3.5 μm, Waters) with a gradient from 3% B to 12.5 % B in 10 min, […]
(§9) min, 100% for 5 min, ramping to 3% B in 2.5 min and then 3% for 10 min. A total of 90 fractions (1 min per fraction) were collected before further concatenation into 30 final fractions. Each fraction was then dried and desalted over a C18 StageTip prior to analysis by mass spectrometry. […]

[2] = test system: SDC2
Protocol: as §1, §2, §3, §4, §5, §6, §7, §8, §9

[3] = test system: S100A7
Protocol: as §1, §2, §3, §4, §5, §6, §7, §8, §9

Row | SMILES | Abundances (Grouped) [1] | Ratio: (SGK3-PROTAC1) / (cSGK3-PROTAC1) [1] | Ratio: (compound) / (DMSO) [1] | Abundances (Grouped) [2] | Ratio: (SGK3-PROTAC1) / (cSGK3-PROTAC1) [2] | Ratio: (compound) / (DMSO) [2] | Abundances (Grouped) [3] | Ratio: (SGK3-PROTAC1) / (cSGK3-PROTAC1) [3] | Ratio: (compound) / (DMSO) [3]
1 | Cc1ccc(F)c(S(=O)(=O)Nc2ccc(-c3nc(OC[C@H]4CN(CCCCCCOCCOCCOCC(=O)N[C@H](C(=O)N5C[C@H](O)C[C@H]5C(=O)NCc5ccc(-c6scnc6C)cc5)C(C)(C)C)CCO4)c4cn[nH]c4n3)cc2)c1 [SGK3-PROTAC1] | 90.2 | 1.082 | 0.713 | 106.6 | 2.505 | 0.665 | 90.9 | 1.014 | 0.645
2 | Cc1ccc(F)c(S(=O)(=O)Nc2ccc(-c3nc(OC[C@H]4CN(CCCCCCOCCOCCOCC(=O)N[C@H](C(=O)N5C[C@@H](O)C[C@H]5C(=O)NCc5ccc(-c6scnc6C)cc5)C(C)(C)C)CCO4)c4cn[nH]c4n3)cc2)c1 [cisSGK3-PROTAC1] | 83.4 |  | 0.656 | 37.8 |  | 0.266 | 90.1 |  | 1.695

— PMC6757289, “Design and Characterization of SGK3-PROTAC1, an Isoform Specific SGK3 Kinase PROTAC Degrader” (ACS Chemical Biology, 2019)
